{
  "source": "patent US5268308A",
  "about": "“Immunoassay for pyridostigmine” (priority 1989, dated 1993)",
  "key": {"central nervous system": {"tested_on": "central nervous system", "conditions": "moderate doses; cited from earlier work"}, "[1]": {"conditions": "biological solutions, particularly plasma and blood; cited from earlier work"}, "[2]": {"assay": "Pyridostigmine in various rat organs after intramuscular dose, by RIA", "format": "in vivo", "conditions": "1.0 mg/kg i.m.", "description": "To further validate the RIA and the antibody specificity of the present invention, additional rat studies were conducted. Male rats were housed two per cage at 23° C. with a twelve hour on-off light cycle. The animals were given food and water ad libitum. After sixty days, food was withheld for twelve hours. Then pyridostigmine was administered (1.0 mg. of pyridostigmine bromide in physiologic saline/Kg) intramuscularly to the rats weighing between 450 and 550 grams.\nGroups of three animals were sacrificed by using inhalation anesthetic, Fluothane (0.01% thymol, w/w; and 0.00025% ammonia, w/w) Ayerst Laboratories, New York, N.Y. at various times after dosing, namely at 0, 5, 10, 15, 30, 60 minutes and at 2, 3, 4 and 6 hours. Blood was collected via heart puncture, and serum was separated by centrifugation at 2000 xg for 20 minutes. Table 4 gives the pyridostigmine level in the plasma of three male rats for each time interval as determined by the RIA of the present invention.\nThe brain, fat, heart, muscle and spleen were also removed from the sacrificed rats. The organs from each time period were pooled and kept frozen at -85° C. until analyzed. In preparing tissue homogenates for analysis, tissue samples were first brought to room temperature. Next the tissue samples were washed with ice-cold saline, blotted dry, weighed and homogenized in an ice-cold solution ([…], 0.5%. Triton X, 150 mM sodium chloride, pH 7.4; 2:1, v/w) with a Biohomogenizer (from Biospect Products Inc., Bartlesville, OK), cooling the tubes with ice as needed. The suspension was centrifuged at 15,000 ×g for 30 minutes at […] The supernatant was collected, and the pellet was mixed once more (1:1, w/v) with the solution, and centrifuged as described earlier. The supernatants for like samples were combined. The RIA of the present invention was then followed to determine the amounts of pyridostigmine in the various rat organs. The results of the RIA are given in."}, "Pyridostigmine Antibody": {"biological_target": "Pyridostigmine Antibody", "assay": "Cross-reactivity with pyridostigmine antibody in RIA (competition with labeled pyridostigmine)", "format": "binding, rabbit (male New Zealand white)", "conditions": "labeled pyridostigmine 5000 DPM; maximum tested 500 ng", "description": "Antibodies to the pyridostigmine-BSA immunogen were produced by injecting male New Zealand white rabbits. Prior to injection, the immunogen was emulsified with an equal volume of complete Freund's adjuvant, purchased from Difco Laboratories. The initial immunization consisted of 0.8 mg of protein injected intracutaneously into the back of the rabbits. Booster injections containing 0.8 mg of immunogen and incomplete Freund's adjuvant were administered every one or two months for the next seven months. Blood was collected one week after each booster injection from the central ear vein. The blood was allowed to clot at room temperature and then centrifuged at 1500×g for 15 minutes. The separated serum was stored frozen at -20° C. until assayed for the presence of pyridostigmine antibody. […] FIG. 1 is the antibody dilution curve for pyridostigmine.\nIn the assay procedure tritiated pyridostigmine having specificity of […] was used as tracer. The dilution of tracer, antisera and pyridostigmine standards were made using 0.01 M phosphate buffer containing 150 mM sodium chloride with a pH of 7.4.. […] Both standard and sample tubes were always analyzed in duplicate. The assay was carried out according to the protocol shown in. Table 1 with the reagents were added to the assay tubes in the order shown in.\nAccording to the protocol for the RIA of the present invention, after the addition of antisera, the contents of the tubes were mixed and incubated for 3 hours at 4° C. The antigen which bound to the antibody was separated by adding 100% saturated ammonium sulfate and centrifuging at 2500×g for 15 minutes. After aspiration of the supernatant, the precipitate was washed one time with 50% saturated ammonium sulfate; then the mixture was centrifuged and the supernatent removed. The precipitate was dissolved in 1.0 ml of distilled water, and the solution was transferred to a scintillation vial containing 10.0 ml of acquasol.\nCross-reactivity of various compounds with pyridostigmine antibody was determined in the RIA. […] Each compound was tested for cross-reactivity with the antibody. The maximum concentration of each compound tested was 500 ng."}, "patients": {"tested_on": "patients", "conditions": "cited from earlier work"}, "[3]": {"conditions": "cited from earlier work"}},
  "data": [
    {"smiles": "CN(C)C(=O)Oc1ccc[n+](C)c1", "note": "[Pyridostigmine]", "values": [
      {"measurement": "effect on the central nervous system", "setting": "central nervous system", "result": "usually do not effect the central nervous system"},
      {"measurement": "in vitro hydrolysis", "setting": "[1]", "result": "extensive in vitro hydrolysis"},
      {"measurement": "Pyridostigmine in rat organs", "setting": "[2]; Brain, 1 HR", "result": 5.06, "unit": "ng/mg protein"},
      {"measurement": "Pyridostigmine in rat organs", "setting": "[2]; Brain, 2 HR", "result": 4.63, "unit": "ng/mg protein"},
      {"measurement": "Pyridostigmine in rat organs", "setting": "[2]; Brain, 3 HR", "result": 3.92, "unit": "ng/mg protein"},
      {"measurement": "Pyridostigmine in rat organs", "setting": "[2]; Brain, 4 HR", "result": 3.55, "unit": "ng/mg protein"},
      {"measurement": "Pyridostigmine in rat organs", "setting": "[2]; Brain, 6 HR", "result": 2.62, "unit": "ng/mg protein"},
      {"measurement": "Pyridostigmine in rat organs", "setting": "[2]; Brain, 5 min", "result": 3.63, "unit": "ng/mg protein"},
      {"measurement": "Pyridostigmine in rat organs", "setting": "[2]; Brain, 10 min", "result": 7.65, "unit": "ng/mg protein"},
      {"measurement": "Pyridostigmine in rat organs", "setting": "[2]; Brain, 15 min", "result": 6.32, "unit": "ng/mg protein"},
      {"measurement": "Pyridostigmine in rat organs", "setting": "[2]; Brain, 30 min", "result": 6.11, "unit": "ng/mg protein"},
      {"measurement": "Pyridostigmine in rat organs", "setting": "[2]; Fat, 1 HR", "result": 8.69, "unit": "ng/mg protein"},
      {"measurement": "Pyridostigmine in rat organs", "setting": "[2]; Fat, 2 HR", "result": 6.46, "unit": "ng/mg protein"},
      {"measurement": "Pyridostigmine in rat organs", "setting": "[2]; Fat, 3 HR", "result": 5.73, "unit": "ng/mg protein"},
      {"measurement": "Pyridostigmine in rat organs", "setting": "[2]; Fat, 4 HR", "result": 3.26, "unit": "ng/mg protein"},
      {"measurement": "Pyridostigmine in rat organs", "setting": "[2]; Fat, 6 HR", "result": 2.91, "unit": "ng/mg protein"},
      {"measurement": "Pyridostigmine in rat organs", "setting": "[2]; Fat, 5 min", "result": 5.98, "unit": "ng/mg protein"},
      {"measurement": "Pyridostigmine in rat organs", "setting": "[2]; Fat, 10 min", "result": 8.11, "unit": "ng/mg protein"},
      {"measurement": "Pyridostigmine in rat organs", "setting": "[2]; Fat, 15 min", "result": 15.37, "unit": "ng/mg protein"},
      {"measurement": "Pyridostigmine in rat organs", "setting": "[2]; Fat, 30 min", "result": 9.05, "unit": "ng/mg protein"},
      {"measurement": "Pyridostigmine in rat organs", "setting": "[2]; Heart, 1 HR", "result": 78.29, "unit": "ng/mg protein"},
      {"measurement": "Pyridostigmine in rat organs", "setting": "[2]; Heart, 2 HR", "result": 52.4, "unit": "ng/mg protein"},
      {"measurement": "Pyridostigmine in rat organs", "setting": "[2]; Heart, 3 HR", "result": 48.57, "unit": "ng/mg protein"},
      {"measurement": "Pyridostigmine in rat organs", "setting": "[2]; Heart, 4 HR", "result": 23.11, "unit": "ng/mg protein"},
      {"measurement": "Pyridostigmine in rat organs", "setting": "[2]; Heart, 6 HR", "result": 8.52, "unit": "ng/mg protein"},
      {"measurement": "Pyridostigmine in rat organs", "setting": "[2]; Heart, 5 min", "result": 43.78, "unit": "ng/mg protein"},
      {"measurement": "Pyridostigmine in rat organs", "setting": "[2]; Heart, 10 min", "result": 57.5, "unit": "ng/mg protein"},
      {"measurement": "Pyridostigmine in rat organs", "setting": "[2]; Heart, 15 min", "result": 70.4, "unit": "ng/mg protein"},
      {"measurement": "Pyridostigmine in rat organs", "setting": "[2]; Heart, 30 min", "result": 75.96, "unit": "ng/mg protein"},
      {"measurement": "Pyridostigmine in rat organs", "setting": "[2]; Muscle, 1 HR", "result": 9.46, "unit": "ng/mg protein"},
      {"measurement": "Pyridostigmine in rat organs", "setting": "[2]; Muscle, 2 HR", "result": 4.99, "unit": "ng/mg protein"},
      {"measurement": "Pyridostigmine in rat organs", "setting": "[2]; Muscle, 3 HR", "result": 4.8, "unit": "ng/mg protein"},
      {"measurement": "Pyridostigmine in rat organs", "setting": "[2]; Muscle, 4 HR", "result": 3.94, "unit": "ng/mg protein"},
      {"measurement": "Pyridostigmine in rat organs", "setting": "[2]; Muscle, 6 HR", "result": 3.08, "unit": "ng/mg protein"},
      {"measurement": "Pyridostigmine in rat organs", "setting": "[2]; Muscle, 5 min", "result": 9.63, "unit": "ng/mg protein"},
      {"measurement": "Pyridostigmine in rat organs", "setting": "[2]; Muscle, 10 min", "result": 13.57, "unit": "ng/mg protein"},
      {"measurement": "Pyridostigmine in rat organs", "setting": "[2]; Muscle, 15 min", "result": 11.67, "unit": "ng/mg protein"},
      {"measurement": "Pyridostigmine in rat organs", "setting": "[2]; Muscle, 30 min", "result": 10.08, "unit": "ng/mg protein"},
      {"measurement": "Pyridostigmine in rat organs", "setting": "[2]; Spleen, 1 HR", "result": 2.48, "unit": "ng/mg protein"},
      {"measurement": "Pyridostigmine in rat organs", "setting": "[2]; Spleen, 2 HR", "result": 2.40, "unit": "ng/mg protein"},
      {"measurement": "Pyridostigmine in rat organs", "setting": "[2]; Spleen, 3 HR", "result": 2.03, "unit": "ng/mg protein"},
      {"measurement": "Pyridostigmine in rat organs", "setting": "[2]; Spleen, 4 HR", "result": 1.92, "unit": "ng/mg protein"},
      {"measurement": "Pyridostigmine in rat organs", "setting": "[2]; Spleen, 6 HR", "result": 1.86, "unit": "ng/mg protein"},
      {"measurement": "Pyridostigmine in rat organs", "setting": "[2]; Spleen, 5 min", "result": 10.35, "unit": "ng/mg protein"},
      {"measurement": "Pyridostigmine in rat organs", "setting": "[2]; Spleen, 10 min", "result": 6.26, "unit": "ng/mg protein"},
      {"measurement": "Pyridostigmine in rat organs", "setting": "[2]; Spleen, 15 min", "result": 6.15, "unit": "ng/mg protein"},
      {"measurement": "Pyridostigmine in rat organs", "setting": "[2]; Spleen, 30 min", "result": 4.44, "unit": "ng/mg protein"},
      {"measurement": "IC 50 (50% inhibition of binding of 3H-pyridostigmine to the antibody)", "setting": "Pyridostigmine Antibody", "result": 4, "unit": "ng"},
      {"measurement": "side effect on intravenous administration", "setting": "patients; administered intraveneously", "result": "thrombophlebitis"},
      {"measurement": "adverse muscarinic effects", "setting": "patients; certain patients", "result": "nausea, vomitin , diarrhea, miosis, excessive salivation and sweating, abdomimal cramps, bradycardia, bronchial secretion and bronchospasm"},
      {"measurement": "toxicity relative to therapeutic levels", "setting": "patients; clinical use", "result": "toxic at levels very close to those which produce therapeutic results"},
      {"measurement": "other side effects", "setting": "patients; human, in vivo", "result": "generalized weakness, muscle cramps, fasciculation, hypotension"},
      {"measurement": "effect of substantial over administration", "setting": "patients; overdose", "result": "cholinergic crisis leading to death"},
      {"measurement": "stability", "setting": "[3]; alkaline solutions", "result": "unstable in alkaline solutions"},
      {"measurement": "solubility", "setting": "[3]; water and alcohol", "result": "freely soluble in water and alcohol"}
    ]}
  ]
}
